We go through one compound from patent publication US20170273949A1, “AGENT FOR PREVENTING AND/OR TREATING OPHTHALMOLOGIC DISEASES” (MITSUBISHI TANABE PHARMA CORPORATION, priority 2014, published 2017).

Assay [1] relates to mouse models induced to have choroidal neovascularization (CNV) by laser irradiation (CNV models). Nature of the assay: laser-induced choroidal neovascularization (CNV) mouse model, area of CNV. The assay is classed as in vivo. Conditions: mice; 3 mg/kg or 10 mg/kg edaravone into the caudal vein immediately after laser irradiation; choroidal flat mount 14 days after irradiation; FIG. 1A, 1B. The procedure: In such CNV models, macrophages migrate as a result of provocation of inflammation by laser irradiation. Consequently, VEGF is generated, and new blood vessels are formed.
A 10-fold dilution of a mixed anesthetic solution of ketamine and xylazine (7:1) was administered at a dose of 10 mL/kg into the femoral muscle of each mouse, and one eye was then irradiated with laser at 6 sites with equal intervals on the circumference of discus nervi optici (wave length: 647 nm, spot size: 50 μm, irradiation time: 100 msec, and laser output: 120 mW). Immediately after the laser irradiation, 3 mg/kg edaravone, 10 mg/kg edaravone, or 10 mL/kg normal saline was administered into the caudal vein of each mouse. Thereafter, fundus photography was carried out using a fundus camera. Fourteen days after the laser irradiation, a 10-fold dilution of Fluorescite (registered trademark) Injection Solution No. 1 was administered at a dose of 0.5 mL/kg into the caudal vein under the same anesthesia as described above, and fluorescein fundus photography was then carried out using a fundus camera. […] The expression of CNV was evaluated by choroidal flat mount. Using a confocal laser scanning microscope, the CNV was photographed, and the area of CNV was then measured. […]

Assay [2] relates to human retinal microvascular endothelial cells (HRMECs). Nature of the assay: VEGF-induced cell growth of HRMECs (cell counting kit-8). The assay is classed as cell-based. To be noted: edaravone 1, 10 or 100 μM added 1 hour before VEGF 10 ng/mL, 24 hours, control without VEGF = 100%, FIG. 2. The procedure:
Using CSC Complete Recombinant Medium, human retinal microvascular endothelial cells (HRMECs) were plated at a cell density of 2×10^3 cells/well on a 96-well plate. Twenty-four hours after plating, the medium was exchanged with a CSC medium containing 10% fetal bovine serum (FBS). Then, twenty-four hours after the medium exchange, edaravone was added in a final concentration of 1, 10 or 100 μM to an edaravone addition group. One hour after the addition of edaravone, to a vascular endothelial growth factor (VEGF) addition group, VEGF was added in a final concentration of 10 ng/mL. Twenty-four hours after the addition of VEGF, in order to remove the reagent and VEGF, the medium was exchanged again with a CSC medium containing 10% FBS. After completion of the medium exchange, cell counting kit-8 was added, and the absorbance at 450 nm was then measured (defined as “measurement value 1”). Three hours after the measurement of the absorbance, the second absorbance measurement was carried out (defined as “measurement value 2”). The measurement value 1 was subtracted from the measurement value 2, and the obtained value was then corrected, using a control group, to which VEGF had not been added, as 100%. The thus obtained value was defined as a growth rate. The cells were cultured under conditions of 37° C. and 5% CO2, except for the operations.
(Tetrazolium dyes change colour on reduction, which living cells bring about.)

Take `CC1=NN(c2ccccc2)C(=O)C1` [edaravone, 3-methyl-1-phenyl-2-pyrazolin-5-one]: the “CNV formation (area of CNV)” value in assay [1] was “inhibited”. In addition, the “cell growth induced by VEGF (growth rate)” value in assay [2] is “suppressed”.
